How the values were obtained:
[1] = test system: osteoclasts from monocytes of peripheral blood of healthy donors; assay: Osteoclast recruitment: differentiation of peripheral blood monocytes into osteoclasts (TRAP-positive cells); assay type: cell-based, human; details: 500 ng, 14 days, 50 ng/ml RANKL + 10 ng/ml M-CSF, 2×10^5 monocytes/chamber (n=3)
Description: The effect of RvD1 analogs on the differentiation of macrophages into osteoclasts was investigated. Monocytes from peripheral blood of healthy donors were cultured in culture chambers at 2×10^5 monocytes/chamber in the presence of 50 ng/ml RANKL+10 ng/ml M-CSF for 14 days, in the presence or absence of 500 ng of compounds I-1 and I-2 (n=3).

[2] = test system: human isolated monocytes/macrophages-RANKL/M-CSF-derived osteoclasts; assay: TRAP staining, osteoclast differentiation of RANKL/M-CSF-treated human monocytes; assay type: cell-based; details: 500 nM, 14 days, 50 ng/ml RANKL and 10 ng/ml M-CSF
Description: (§1) Murine macrophage RAW 264.7 (ATCC, Manassas, VA, USA) were cultured with AMEM/10% FBS and antibiotics at 37° C. in a humidified atmosphere with 5% CO2. Primary human monocytes were isolated from whole blood obtained from healthy volunteers. Briefly, blood was centrifuged on a Ficoll-Paque density gradient, according to the manufacturer's recommendations. Isolated monocytes were then cultured in RPMI 1640 medium supplemented with 10% FBS, and antibiotics. All donors provided written, informed consent for the use of their blood for research purposes. Experimental protocols were approved by the Research Ethics Board of the “Hôpital du Sacré-Coeur de Montreal”.
Isolated human monocytes were isolated as described previously, seeded in chambered cell culture slides at 8×10^4 cells/well, and treated with 50 ng/ml RANKL and 10 ng/ml M-CSF in the presence or absence of 500 nM of compounds I-1 and I-2 for 14 days. Culture medium was changed every 3 days. TRAP staining performed as recommended by the manufacturer. […] Results are shown in FIG. 3, where arrows show osteoclasts with three nuclei or more (b). R=RANKL; M=M-CSF.
Here, the impact of RvD1 analogues treatment on human isolated monocytes/macrophages-RANKL/M-CSF-derived osteoclasts was eveluated, by measuring their phenotypic markers, namely TRAP. […]

Raw264.7 macrophages = assay: Cell viability (MTS) assay, cytotoxicity in Raw 264.7 macrophages; assay type: cell-based, mouse; details: Raw264.7 macrophages, 0, 0.1, 0.25, 0.5 and 1 μM, 24 h incubation
Description: Murine macrophage RAW 264.7 (ATCC, Manassas, VA, USA) were cultured with AMEM/10% FBS and antibiotics at 37° C. in a humidified atmosphere with 5% CO2. Primary human monocytes were isolated from whole blood obtained from healthy volunteers. Briefly, blood was centrifuged on a Ficoll-Paque density gradient, according to the manufacturer's recommendations. Isolated monocytes were then cultured in RPMI 1640 medium supplemented with 10% FBS, and antibiotics. All donors provided written, informed consent for the use of their blood for research purposes. Experimental protocols were approved by the Research Ethics Board of the “[…] du Sacré-Coeur de Montreal”. Raw264.7 cells were treated for 24 hours with increasing concentrations of compounds I-1 and I-2 (0, 0,1, 0,25, 0,5, and 1 μM). Cell viability was assessed with MTS assay kit (Promega Corporation, Madison, WI, USA), as described by the manufacturer. Absorbance was measured with the micro-ELISA Vmax photometer (Bio-Tek Instruments, Winooski, VT, USA). Cell viability was evaluated by 3-(4,5-dimethyl-thiazoyl)-2,5-diphenyl-SH-tetrazolium bromide assay. ANOVA test was performed to compare the results. Results are expressed as mean±SEM for n=3. This part of the experiment was designed to test the cytotoxic effect of compounds 1-1 and 1-2 on mouse Raw264.7 macrophages. […]

[3] = Reactive oxygen species (ROS) production in acellular environment (DCFH-DA probe); details: 1 μM, ROS generated with CuCl2 (1 mM) and H2O2 (1 mM) for 10 min
Description: ROS were generated by incubating in black 96-well plate with CuCl2 (1 mM) with H2O2 (1 mM) for 10 min. Subsequently, RvD1, I-1 and I-2 at 1 μM were added before the addition of the DCFH-DA probe.

TNFα = assay: Inhibition of IL-1β-induced TNFα production in Raw264.7; assay type: cell-based, mouse; details: Raw264.7, 1 μM, pretreated 1 h then 1 ng/ml IL-1β for 24 h, compared to IL-1β alone
Description: as §1
It is well-documented that the RvD1 is considered as a potent anti-inflammatory mediator. Thus, the purpose of this part of the present study was to investigate whether compounds I-1 and I-2's capacity to inhibit pro-inflammatory cytokines, such as TNFα. To do so, Raw264.7 were pretreated with compounds I-1 and I-2 at different concentrations (0, 0.1, 0.5, and 1-μM) for 1h, followed by exposure to 1 ng/ml IL-1β for 24 h. […] As such, it may be concluded that compounds I-1 and I-2 inhibit TNFα production.

[4] = test system: human monocyte-derived osteoclasts; assay: Hydroxyapatite matrix resorption by human monocyte-derived osteoclasts (von Kossa staining); assay type: cell-based; details: 500 nM, M-CSF/RANKL-differentiated cells, p<0.01 (n=3)
From the text: The effect of RvD1 analogs on the resorption activity of human monocyte-derived osteoclasts was investigated. Results were obtained as described in Benabdoun et al. 2019 and are shown in FIG. 10, where data were expressed as % resorption area/osteoclast with three nuclei or more (n=3).

[5] = Ultraviolet-induced hyaluronic acid (HA) degradation; details: 1 μM, HA 1 mg/ml in PBS, UV for 4 hours (n=3)
Description: In order to study the protective effect of RvD1 and its analogs on the stability of hyaluronic acid (HA), a solution of commercial HA was prepared in PBS at a concentration of 1 mg/ml, then exposed to Ultraviolet rays (UV) for 4 hours in the presence or absence of RvD1 and compounds I-1 and I-2 at a dose of 1 μM. 20 μg of HA were loaded into an agarose gel (1% prepared in TBE buffer). After 4 hours of migration at 40 volts, the HA was visualized after staining with Stains-All dissolved in 30% ethanol.

[6] = H2O2-induced hyaluronic acid fragmentation (agarose gel, Stains-All); details: HA 1 mg/ml, pretreated 1 hour at 1 or 10 μM, then 1 mM H2O2 for 4 hours; preliminary data
Description: Commercial hyaluronic acid was solubilised in sterilized PBS (1 mg/ml) during overnight under gentile shaking. The solution was pretreated with N-acetyl-Cysteine (NAC), RvD1, compounds I-1 and I-2 at 1 or 10 μM for 1 hour and then treated with 1 mM H2O2 during 4 hours. Samples were mixed in loading buffer containing 1M sucrose and loaded in 1% agarose/1× Tris-borate-EDTA (TBE) and pre-run the gel for 6 hours at 40V in 1× TBE buffer. The gel was then equilibrated with 30% ethanol in water and stained with Stains-All solution containing 0.1 mg Stains-All and 30% ethanol for overnight in the dark. Next, the gel was equilibrated in water for 1 hour and then exposed to light for destaining. Finally, hyaluronic acid was visualized using Alpha Imager under light transillumination. Results are shown in FIG. 4, where arrows show hyaluronic acid fragments (n=2), Al=I-1; A2=I-2.
This part of experiments was designed to investigate the ability of RvD1 analogues to protect hyaluronic acid against H2O2-induced degradation (antioxidant effect). To do so, the polymer at 1 mg/ml was pretreated by RvD1 and their analogues for 1 hour and then after treated with 1 mM H2O2 for 4 hours.

MMP-13 = assay: Inhibition of MMP-13 production in human OA chondrocytes; assay type: cell-based; details: Chondrocyte, IL-1β 1 ng/ml one hour then compound 24 hours
Description: The effect of RvD1 analogs on the expression of MMP-13, a key enzyme involved in the degradation of OA cartilage, was investigated. Chondrocytes from human osteoarthritic cartilage were treated with IL-1β (1 ng/ml) for one hour followed by another treatment with RvD1 and its analogues for 24 hours.

COX-2 [7] = assay: COX-2 expression in human OA chondrocytes by Western blot; assay type: cell-based; details: 10 μM, 1 hour then IL-1β 1 ng/ml for 24 hours
Description: Cells were seeded in 24-well flat plates at a confluence of 5×10^5 cells per well in 10% FBS DMEM medium and incubated for 24 h at 37° C. Then, the cells were treated with I-1 at different doses (0-10 μM) for 1 hour followed by a second treatment with IL-1β for 24 hours (1 ng/ml). COX-2 expression was assessed by Western blot by specific anti-COX-2 antibody.

human OA chondrocytes = assay: Reactive oxygen species (ROS) production in human OA chondrocytes (DCFH-DA probe); assay type: cell-based; details: 1 μM, 0.5 mM H2O2 for 2 hours
Description: In a second step, the study was continued to explore the antioxidant effect of RvD1 and compounds I-1 and I-2 in a cell medium. Thus, human OA chondrocytes with osteoarthritis were seeded in black plates at a rate of 5×10^4 cells per well in 10% FBS DMEM medium (phenol red free) and incubated for 24 h at 37° C., and then treated with 0.5 mM H2O2 for 2 hours in the presence or absence of RvD1 and the compounds I-1 and I-2 at a concentration of 1 μM. The generation of ROS was measured by the addition of 10 μM of the DCFH-DA probe and fluorescence was measured using a microplate reader with Fluorescence Polarization (Polar Star Optima, BMG Labtech) set up at ex. 485 nm and em. 530 nm.

COX-2 [8] = assay: COX-2 protein expression by Western blotting in Raw264.7 macrophages; assay type: cell-based, mouse; details: Raw264.7 macrophages, 0, 0.25, 0.5, 1 μM for 1 hour, then 1 ng/ml IL-1β for 24 hours (n=2)
Description: 20 μg of total proteins of Raw264.7 macrophages lysates, treated under the indicated conditions, were loaded for discontinuous 4-12% sodium dodecyl sulfate-polyacrylamide gel electrophoresis. They were then transferred electrophoretically onto nitrocellulose membranes (Bio-Rad Laboratories, Mississauga, ON, Canada) for protein immunodetection and semi-quantitative measurement. The primary antibodies deployed were rabbit anti-COX-2 (Cayman Chemical Company) and mouse anti-β-actine (Sigma). […] Immunoreactive proteins were detected with SuperSignal blotting substrate (Pierce, Rockford, IL) and exposed to Kodak X-Omat™ film (Eastman Kodak Company, Rochester, NY).
Here, the hypothesis whether RvD1 analogues have the ability to modulate COX-2 protein expression was tested. Raw264.7 macrophages were pretreated with increasing doses of compound I-2 (0, 0.25, 0.5, 1-μM) for 1 hour and treated then after with 1 ng/ml IL-1β for 24 hours.

Row | Compound | formation of osteoclasts (3 or more nuclei) [1] | osteoclasts differentiation (TRAP) [2] | cell viability (Raw264.7 macrophages) | level of ROS in acellular medium [3] | reduction of TNFα level (TNFα) [%] | erosion of the hydroxyapatite matrix (% resorption area/osteoclast) [4] | HA degradation by UV exposure [5] | H2O2-induced hyaluronic acid fragmentation [6] | inhibition at 20 µM (MMP-13) [%] | COX-2 expression (COX-2 [7]) | generation of ROS by chondrocytes (human OA chondrocytes) | IL-1β-induced COX-2 protein expression (COX-2 [8]) | inhibition at 10 µM (MMP-13; 10 μM) [%]
1 | CCCCC[C@H](O)c1c(/C=C/[C@@H](O)[C@@H](O)C/C=C\CCC(=O)OC)nc(C)n1C [I-1, methyl (4Z,7S,8R,9E)-7,8-dihydroxy-10-(5-((S)-1-hydroxyhexyl)-1,2-dimethyl-1H-imidazol-4-yl)deca-4,9-dienoate] | inhibited the formation of large osteoclasts | strongly prevent osteoclasts differentiation | did not alter the cell viability | level of ROS decreases | 40 | significantly reduced erosion of the hydroxyapatite matrix to almost control level | prevents HA degradation by UV exposure | prevent H2O2-induced fragmentation | ~20 | reduces COX-2 expression | significantly reduced the generation of ROS | – | –
2 | CCCCC[C@H](O)c1c(/C=C/[C@@H](O)[C@@H](O)C/C=C\CCC(=O)O)nc(C)n1C [I-2, (4Z,7S,8R,9E)-7,8-dihydroxy-10-(5-((S)-1-hydroxyhexyl)-1,2-dimethyl-1H-imidazol-4-yl)deca-4,9-dienoic acid] | inhibited the formation of large osteoclasts | strongly prevent osteoclasts differentiation | did not alter the cell viability | level of ROS decreases | 40 | significantly reduced erosion of the hydroxyapatite matrix to almost control level | prevents HA degradation by UV exposure | prevent H2O2-induced fragmentation | ~20 | – | significantly reduced the generation of ROS | reduced IL-1β-induced COX-2 protein expression | –
3 | CC/C=C\C[C@H](O)/C=C/C=C\C=C\C=C\[C@@H](O)[C@@H](O)C/C=C\CCC(=O)O [RvD1, 7S,8R,17S-trihydroxy-4Z,9E, 11E,13Z,15E,19Z-docosahexaenoic acid, reference compound] | – | – | – | level of ROS decreases | – | – | prevents HA degradation by UV exposure | prevent H2O2-induced fragmentation | – | – | significantly reduced the generation of ROS | – | ~20

Source: patent US12398122B2, “Resolvin analogs compounds, methods and uses thereof” (VALORISATION RECHERCHE HSCM, LIMITED PARTNERSHIP, priority 2022, dated 2025)
